Experimental data: PubChem BioAssay (NCI)
Several values for one entry are separate records, joined by “and”; a condition that tells them apart may be missing. Equal entries are not always repeated.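 Step 1: Grow cells in 96-well plates. Step 2: Expose to compound for 48 hours at 5 concentrations. Step 3: Interpolate endpoints linearly; if unreached, use highest concentration. TGI denotes the concentration required for complete inhibition of growth.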 Where a SMILES comes first, the peptide text is derived from it.

What was measured:
Assay in all cases: NCI-60 cell line screen, 48 h
PC-3 prostate = system: PC-3 prostate
SK-MEL-28 melanoma = system: SK-MEL-28 melanoma
MDA-N = system: MDA-N
SK-OV-3 ovarian = system: SK-OV-3 ovarian
NCI-H460 lung = system: NCI-H460 lung
OVCAR-4 ovarian = system: OVCAR-4 ovarian
KM12 colon = system: KM12 colon
SF-295 CNS = system: SF-295 CNS
COLO 205 colon = system: COLO 205 colon
A549 NSCLC = system: A549 NSCLC
CAKI-1 renal = system: CAKI-1 renal
DU-145 prostate = system: DU-145 prostate
BT-549 breast = system: BT-549 breast
A498 renal = system: A498 renal
SK-MEL-5 melanoma = system: SK-MEL-5 melanoma
HOP-92 NSCLC = system: HOP-92 NSCLC
HT29 colon = system: HT29 colon
K-562 leukemia = system: K-562 leukemia
SK-MEL-2 melanoma = system: SK-MEL-2 melanoma
HCC-2998 colon = system: HCC-2998 colon

Row | Compound | TGI (PC-3 prostate) | TGI (SK-MEL-28 melanoma) | TGI (MDA-N) | TGI (SK-OV-3 ovarian) | TGI (NCI-H460 lung) | TGI (OVCAR-4 ovarian) | TGI (KM12 colon) | TGI (SF-295 CNS) | TGI (COLO 205 colon) | TGI (A549 NSCLC) | TGI (CAKI-1 renal) | TGI (DU-145 prostate) | TGI (BT-549 breast) | TGI (A498 renal) | TGI (SK-MEL-5 melanoma) | TGI (HOP-92 NSCLC) [µM] | TGI (HT29 colon) | TGI (K-562 leukemia) | TGI (SK-MEL-2 melanoma) | TGI (HCC-2998 colon)
1 | CC(=O)NC(CS)C(=O)NC(CO)C(=O)NC(CO)C(=O)NC(Cc1c[nH]c2ccccc12)C(=O)N1CCCC1C(=O)NC(CO)C(=O)NC(Cc1c[nH]c2ccccc12)C(=O)NC(Cc1c[nH]cn1)C(=O)NC(CO)C(=O)NC(Cc1c[nH]c2ccccc12)C(=O)NCC(=O)NCC(=O)NC(CC(=O)O)C(=O)NC(CCC(N)=O)C(=O)NC(CCCCN)C(=O)NC(Cc1ccccc1)C(=O)NC(CCCNC(=N)N)C(=O)NC(CCCCN)C(N)=O (configuration not stated) (Ac-CSSWPSWHSWGGDQKFRK-NH2; configuration not given here) | > 25 µM | > 25 µM | > 25 µM | > 25 µM | > 25 µM | > 25 µM | > 25 µM | > 25 µM | > 25 µM | > 25 µM | > 25 µM | > 25 µM | > 25 µM | > 25 µM | > 25 µM | > 25 | > 25 µM | > 25 µM | > 25 µM | –
2 | CC1=C(C#N)C2C(=C(N)Oc3ccccc32)C(N)=N1 (configuration not stated) | > 100 µM | – | > 100 µM | > 100 µM | – | 77.7 µM | 71.2 µM | > 100 µM | 67 µM | > 100 µM | 53.9 µM | 60.9 µM | 93.5 µM | 74.2 µM | 49.5 µM | – | 87.7 µM | 90.8 µM | > 100 µM | 69.8 µM
3 | CCCN(CCC)c1cc2c(cc1F)c(=O)c(C(=O)O)cn2-c1ccc(N2CCN(C)CC2)cn1 | 39.3 µM | 36.5 µM | 40.1 µM | 28.5 µM | 36.5 µM | 43.3 µM | 30.3 µM | 33.6 µM | 27.1 µM | 34 µM | 32.5 µM | 45.3 µM | 25 µM | 49.2 µM | – | 28.7 | 30.5 µM | 55.1 µM | – | –
4 | CC(C)C1SCc2nc3ccccc3n21 (configuration not stated) | 71.2 µM | > 100 µM | > 100 µM | > 100 µM | > 100 µM | > 100 µM | 45.5 µM | > 100 µM | 26.8 µM | > 100 µM | > 100 µM | > 100 µM | – | 83.3 µM | 31 µM | > 100 | > 100 µM | > 100 µM | 79.6 µM | > 100 µM
5 | COc1ccccc1N1C(=O)CS(=O)(=O)C1c1cccc(Oc2ccccc2)c1 (configuration not stated) | 27.2 µM | 36.7 µM | 16.5 µM | 73.5 µM | 29.4 µM | 38.6 µM | 61.7 µM | 38.2 µM | 34.4 µM | 40.5 µM | 64.3 µM | 71.2 µM | 31.8 µM | 34.6 µM | 28.9 µM | 24.7 | 44.1 µM | 19.1 µM | 27.1 µM | –
6 | CC(=O)c1nc2ccccc2n1CC(=O)c1ccc(Cl)cc1 | 60.1 µM | > 100 µM | > 100 µM | > 100 µM | 22.5 µM | > 100 µM | > 100 µM | 43.7 µM | 53 µM | 32.4 µM | > 100 µM | > 100 µM | > 100 µM | > 100 µM | – | 22.5 | 35.4 µM | > 100 µM | 78.1 µM | –
7 | CO[C@@H]1C=C[C@@]23c4cc5c(cc4C(O)N(CC2O)C3C1)OCO5 (some centres not stated) | 17.5 µM | > 100 µM | 26.1 µM | > 100 µM | 12.9 µM | 19.4 µM | 17 µM | 64.1 µM | 14.2 µM | 39.5 µM | 27.2 µM | 50.7 µM | 20.5 µM | 7.68 µM | 6.01 µM | 13.6 | 26.2 µM | > 100 µM | 9.09 µM | –
8 | Cc1ccc(CC2(OCCN(C)C)CCC(C(C)(C)C)CC2)cc1 (configuration not stated) | 13.7 µM and 15.2 µM | 4.08 µM and 4.04 µM | 6.96 µM and 5.28 µM | 20.9 µM and 23.6 µM | 3.71 µM and 3.57 µM | 15.2 µM and 16.6 µM | 13 µM and 10.4 µM | 9.86 µM and 9.5 µM | 3.98 µM and 3 µM | 14 µM and 20.4 µM | 17.7 µM and 15.3 µM | 15.1 µM and 17.1 µM | 16.1 µM and 19.8 µM | 28.6 µM and 27.1 µM | 2.94 µM and 2.97 µM | – | 5.15 µM and 5.9 µM | 3.97 µM and 4.45 µM | 4.96 µM and 5.35 µM | 4.26 µM and 4.73 µM
9 | Nc1nc(Cl)cc(NCC2(CO)CCC(O)C2)n1 (configuration not stated) | > 100 µM | > 100 µM | > 100 µM | > 100 µM | > 100 µM | > 100 µM | > 100 µM | > 100 µM | > 100 µM | > 100 µM | > 100 µM | > 100 µM | > 100 µM | > 100 µM | > 100 µM | > 100 | > 100 µM | > 100 µM | > 100 µM | –
10 | O=C(Nc1nnc(-c2c(Cl)c(Cl)c(Cl)c(Cl)c2-c2nc3cc(C(=O)c4ccccc4)ccc3[nH]2)o1)c1ccccc1 | 28.3 µM | 45.4 µM | 12.6 µM | 52.2 µM | – | 95.1 µM | > 100 µM | 24.3 µM | 24.5 µM | 31.9 µM | > 100 µM | 47.8 µM | 73.4 µM | 49.6 µM | 18.5 µM | 44.5 | 63.6 µM | > 100 µM | 51.4 µM | –
11 | COc1ccc2c(c1)CCCN1Cc3cc(OC)c(OC)cc3CC21 (configuration not stated) | > 100 µM | > 100 µM | > 100 µM | > 100 µM | > 100 µM | > 100 µM | > 100 µM | > 100 µM | > 100 µM | > 100 µM | > 100 µM | > 100 µM | > 100 µM | – | > 100 µM | > 100 | > 100 µM | > 100 µM | – | > 100 µM
12 | O=C(O)Cc1cccc2c1OC(c1ccccc1)C(C(=O)c1ccccc1)C2=O (configuration not stated) | > 100 µM | > 100 µM | > 100 µM | > 100 µM | > 100 µM | – | > 100 µM | > 100 µM | > 100 µM | > 100 µM | > 100 µM | > 100 µM | > 100 µM | – | > 100 µM | – | – | > 100 µM | – | 59.7 µM
